Experimental data as given in article PMC10761660, “Preclinical evaluation of an ^18F-labeled N^ε-acryloyllysine piperazide for covalent targeting of transglutaminase 2” (EJNMMI Radiopharmacy and Chemistry, 2024).

Experiment: Ex vivo biodistribution in normal mice
Set-up: species or system mice (Rj:NMRI-Foxn1 nu/nu)
Conditions: i.v., control conditions
Protocol: For biodistribution studies in normal mice, [^18F]7b (0.57 ± 0.03 MBq corresponding to 27 ± 1 pmol in 0.2 mL 0.9% NaCl with a maximum of 10% ethanol (v/v)) was injected i.v. into nude mice (Rj:NMRI-Foxn1 nu/nu, Janvier Laboratories, Le Genest-Saint-Isle, France, body weight 27.7 ± 3.4 g) without (control conditions) or with co-injection of ketoconazole (3 mg/animal). A stock solution of ketoconazole (141 mM) was prepared in ethanol/Tween-80 (1:1, v/v) by shaking over night at 45 °C. This solution was diluted with 0.9% NaCl (1:4, v/v) prior injection. The animals were sacrificed at 5 and 60 min p.i. by CO2 inhalation and cervical dislocation. Organs and tissues of interest were excised, weighed, and radioactivity was determined using the Wizard™3’’ gamma counter. Activity in selected organs and tissues was expressed as % injected dose per weight (% ID/g) or % injected dose (% ID).

C=CC(=O)NCCCCC(NC(=O)Cc1ccccc1)C(=O)N1CCN(c2cccc([18F])n2)CC1 (centres unmarked) [[^18F]7b]
activity uptake kidneys (5 min p.i.): 7.9 %ID/g | activity uptake liver (5 min p.i.): 15.7 %ID/g | activity uptake femur (60 min p.i.): 3.9 %ID/g | injected activity in intestinal content (60 min p.i.): 50 %ID | injected activity in urine (60 min p.i.): 19 %ID
